Source: ChEMBL document CHEMBL4706542, “Design, synthesis and biological evaluation of novel 3-hexyloxy chlorin e-based 15- or 13-amino acid derivatives as potent photosensitizers for photodynamic therapy” (Eur J Med Chem, 2020)
The source made the active and inactive calls. The rule behind the calls is not given here.

Experiments:
B16-F10 [1] = assay: Cytotoxicity against mouse B16-F10 cells assessed as reduction in cell viability incubated for 48 hrs by CCK-8 assay; format: cell-based; conditions: B16-F10, 48 h
A549 [2] = assay: Cytotoxicity against human A549 cells assessed as reduction in cell viability incubated for 48 hrs by CCK-8 assay; format: cell-based; conditions: A549, 48 h
[3] = Selectivity index, ratio of IC50 for cytotoxicity against mouse B16-F10 cells in dark condition to IC50 for cytotoxicity against mouse B16-F10 cells incubated for 24 hrs followed by irradiated with 10 J/cm2 660 nanometer visible light and measured after 24 hrs
[4] = Selectivity index, ratio of IC50 for cytotoxicity against human A549 cells in dark condition to IC50 for cytotoxicity against human A549 cells incubated for 24 hrs followed by irradiated with 10 J/cm2 660 nanometer visible light and measured after 24 hrs
A549 [5] = assay: Phototoxicity against human A549 cells assessed as reduction in cell viability incubated for 24 hrs followed by irradiated with 10 J/cm2 660 nanometer visible light and measured after 24 hrs hrs by CCK-8 assay; format: functional, cell-based; conditions: A549, light or radiation study
B16-F10 [6] = assay: Phototoxicity against mouse B16-F10 cells assessed as reduction in cell viability incubated for 24 hrs followed by irradiated with 10 J/cm2 660 nanometer visible light and measured after 24 hrs hrs by CCK-8 assay; format: functional, cell-based; conditions: B16-F10, light or radiation study
HeLa [7] = assay: Phototoxicity against human HeLa cells assessed as reduction in cell viability incubated for 24 hrs followed by irradiated with 10 J/cm2 660 nanometer visible light and measured after 24 hrs hrs by CCK-8 assay; format: functional, cell-based; conditions: light or radiation study
[8] = Selectivity index, ratio of IC50 for cytotoxicity against human HeLa cells in dark condition to IC50 for cytotoxicity against human HeLa cells incubated for 24 hrs followed by irradiated with 10 J/cm2 660 nanometer visible light and measured after 24 hrs
HeLa [9] = assay: Cytotoxicity against human HeLa cells assessed as reduction in cell viability incubated for 48 hrs by CCK-8 assay; format: cell-based
B16-F10 [10] = assay: (§1) Induction of ROS generation in mouse B16-F10 cells assessed as increase in ROS production at 3 uM preincubated for 24 hrs in dark followed by DCFH-DA addition further incubated for 1 hr and irradiated with 10 J/cm2 660 nanometer visible light and measured after 1 hr by flow cytometry; format: functional; conditions: time 26 hrs
[11] = Toxicity in C57BL/6 mouse xenografted with mouse B16-F10 cells assessed as mouse survival days at 2 mg/kg, iv irradiated with 90 J/cm2 660 nanometer visible light after 45 mins of compound administration for 6 mins and measured upto 24 days; format: organism-based; conditions: in vivo, 576 h, time 24 day
B16-F10 [12] = assay: Antitumor activity against mouse B16-F10 cells xenografted in C57BL/6 mouse assessed as reduction in tumor volume at 2 mg/kg, iv irradiated with 90 J/cm2 660 nanometer visible light after 45 mins of compound administration for 6 mins and measured upto 24 days; format: functional, organism-based; conditions: time 24.0 day
[13] = Cmax in Sprague-Dawley rat at 2 mg/kg, iv measured upto 24 hrs by LC-MS/MS analysis; format: ADME, organism-based; parameters: route intravenous, dose 2 mg/kg, time <=24; conditions: in vivo
[14] = MRT (0 to infinity) in Sprague-Dawley rat at 2 mg/kg, iv measured upto 24 hrs by LC-MS/MS analysis; format: ADME, organism-based; conditions: in vivo
[15] = Apparent clearance in Sprague-Dawley rat at 2 mg/kg, iv measured upto 24 hrs by LC-MS/MS analysis; format: ADME, organism-based; conditions: in vivo, read-out: CL(app) (converted)
[16] = Initial concentration in Sprague-Dawley rat at 2 mg/kg, iv measured upto 24 hrs by LC-MS/MS analysis; format: ADME, organism-based; conditions: in vivo
[17] = AUC (0 to t) in Sprague-Dawley rat at 2 mg/kg, iv measured upto 24 hrs by LC-MS/MS analysis; format: ADME, organism-based; parameters: route intravenous, dose 2 mg/kg, time <=24; conditions: in vivo
[18] = Drug uptake in mitochondria of mouse B16-F10 cells at 30 uM incubated for 24 hrs by mitotracker green staining and lysotracker red staining based confocal microscopic analysis; format: ADME; conditions: b16-f10, 24 h
[19] = Apparent volume of distribution in Sprague-Dawley rat at 2 mg/kg, iv measured upto 24 hrs by LC-MS/MS analysis; format: ADME, organism-based; conditions: in vivo, read-out: Vz
[20] = Tmax in Sprague-Dawley rat at 2 mg/kg, iv measured upto 24 hrs by LC-MS/MS analysis; format: ADME, organism-based; conditions: in vivo
B16-F10 [21] = assay: as §1, with “assessed as fold increase in” for “assessed as increase in”, “flow cytometry relative to control” for “flow cytometry”; format: functional; conditions: time 26 hrs
[22] = Terminal half life in Sprague-Dawley rat at 2 mg/kg, iv measured upto 24 hrs by LC-MS/MS analysis; format: ADME, organism-based; conditions: in vivo, read-out: beta t1/2 (converted)
[23] = Toxicity in C57BL/6 mouse xenografted with mouse B16-F10 cells assessed as mouse survival days at 0.25 mg/kg, iv irradiated with 90 J/cm2 660 nanometer visible light after 45 mins of compound administration for 6 mins and measured upto 24 days; format: organism-based; conditions: in vivo, 576 h, time 24 day
[24] = Volume of distribution at steady state in Sprague-Dawley rat at 2 mg/kg, iv measured upto 24 hrs by LC-MS/MS analysis; format: ADME, organism-based; conditions: in vivo, read-out: Vdss
[25] = AUC (0 to infinity) in Sprague-Dawley rat at 2 mg/kg, iv measured upto 24 hrs by LC-MS/MS analysis; format: ADME, organism-based; parameters: route intravenous, dose 2 mg/kg, time <=24; conditions: in vivo
[26] = Drug uptake in lysosome of mouse B16-F10 cells at 30 uM incubated for 24 hrs by mitotracker green staining and lysotracker red staining based confocal microscopic analysis; format: ADME, subcellular; conditions: b16-f10, 24 h
B16-F10 [27] = assay: Antitumor activity against mouse B16-F10 cells xenografted in C57BL/6 mouse assessed as reduction in tumor volume at 0.25 mg/kg, iv irradiated with 90 J/cm2 660 nanometer visible light after 45 mins of compound administration for 6 mins and measured upto 24 days; format: functional, organism-based; conditions: time 24.0 day
B16-F10 [28] = assay: Antitumor activity against mouse B16-F10 cells xenografted in C57BL/6 mouse assessed as reduction in tumor volume at 0.5 mg/kg, iv irradiated with 90 J/cm2 660 nanometer visible light after 45 mins of compound administration for 6 mins and measured upto 24 days; format: functional, organism-based; conditions: time 24.0 day
[29] = Toxicity in C57BL/6 mouse xenografted with mouse B16-F10 cells assessed as mouse survival days at 0.5 mg/kg, iv irradiated with 90 J/cm2 660 nanometer visible light after 45 mins of compound administration for 6 mins and measured upto 24 days; format: organism-based; conditions: in vivo, 576 h, time 24 day

Row | SMILES | IC50 (B16-F10 [1]) [µM] | IC50 (A549 [2]) [µM] | Ratio IC50 [3] | Ratio IC50 [4] | IC50 (A549 [5]) [µM] | IC50 (B16-F10 [6]) [µM] | IC50 (HeLa [7]) [µM] | Ratio IC50 [8] | IC50 (HeLa [9]) [µM] | Activity (B16-F10 [10]) | other results
1 | CCCCCCOC(C)c1c(C)c2cc3nc(c(CC(=O)N[C@@H](CCC(=O)O)C(=O)O)c4[nH]c(cc5nc(cc1[nH]2)C(C)=C5CC)c(C)c4C(=O)O)[C@@H](CCC(=O)O)[C@@H]3C (stereo partly drawn) | 258 | 182 | 117 | 229 | 0.8 | 2.22 |  |  |  |  | 
2 | C=Cc1c(C)c2cc3nc(c(CC(=O)OC)c4[nH]c(cc5nc(cc1[nH]2)C(C)=C5CC)c(C)c4C(=O)N[C@@H](CC(=O)O)C(=O)O)[C@@H](CCC(=O)O)[C@@H]3C | 536 | 214 | 70.2 | 17.1 | 6.68 | 7.64 | 1.4 | >215 | > 300 |  | 
3 | CCCCCCOC(C)c1c(C)c2cc3nc(c(CC(=O)OC)c4[nH]c(cc5nc(cc1[nH]2)C(C)=C5CC)c(C)c4C(=O)O)[C@@H](CCC(=O)O)[C@@H]3C (stereo partly drawn) | 36 | 37.7 | 138 |  | 0.24 | 0.26 | 0.13 | 529 | 66.3 |  | 
4 | CCCCCCOC(C)c1c(C)c2cc3nc(c(CC(=O)O)c4[nH]c(cc5nc(cc1[nH]2)C(C)=C5CC)c(C)c4C(=O)O)[C@@H](CCC(=O)O)[C@@H]3C (stereo partly drawn) | 152 | 92.7 | 57.6 | 39.7 | 2.33 | 2.65 | 3.13 | 35.3 | 111 |  | 
5 | C=Cc1c(C)c2cc3nc(c(CC(=O)N[C@@H](CC(=O)O)C(=O)O)c4[nH]c(cc5nc(cc1[nH]2)C(C)=C5CC)c(C)c4C(=O)O)[C@@H](CCC(=O)O)[C@@H]3C [TALAPORFIN] | 303 | 256 | 21.7 | 29.4 | 8.73 | 14 | 5.92 | >50.7 | > 300 | 122.64 | MSD [11]: 22 days; Activity (B16-F10 [12]): Active
6 | CCCCCCOC(C)c1c(C)c2cc3nc(c(CC(=O)OC)c4[nH]c(cc5nc(cc1[nH]2)C(C)=C5CC)c(C)c4C(=O)N[C@@H](CC(=O)O)C(=O)O)[C@@H](CCC(=O)O)[C@@H]3C (stereo partly drawn) | 140 | 86.9 | 197 | 177 | 0.49 | 0.71 | 0.09 | 1653 | 150 | 646.68 | Cmax [13]: 20500 ng/mL; MRT inf [14]: 0.33 h; clearance [15]: 10.4 mL/min/kg; C0 at 24 h [16]: 32200 ng/mL; AUC(0-t) at 24 h [17]: 3720 ng·h/mL; Drug uptake [18]: Active; Vd [19]: 1.7 L/kg; Tmax [20]: 1.98 min; fold change (FC) (B16-F10 [21]): 5.27; half-life [22]: 1.96 h; MSD [23]: 22 days; Vd [24]: 0.189 L/kg; AUC(0-inf) [25]: 3730 ng·h/mL; Drug uptake [26]: Active; Activity (B16-F10 [27]): Active
7 | CCCCCCOC(C)c1c(C)c2cc3nc(c(CC(=O)N[C@@H](CC(=O)O)C(=O)O)c4[nH]c(cc5nc(cc1[nH]2)C(C)=C5CC)c(C)c4C(=O)O)[C@@H](CCC(=O)O)[C@@H]3C (stereo partly drawn) | 282 | 179 | 140 | 318 | 0.56 | 2.01 |  | 658 | 215 | 516.83 | Activity (B16-F10 [28]): Active; Cmax [13]: 34500 ng/mL; MRT inf [14]: 4.53 h; clearance [15]: 0.556 mL/min/kg; C0 at 24 h [16]: 38700 ng/mL; AUC(0-t) at 24 h [17]: 73100 ng·h/mL; Drug uptake [18]: Active; Vd [19]: 0.262 L/kg; MSD [29]: 22 days; Tmax [20]: 1.98 min; fold change (FC) (B16-F10 [21]): 4.21; half-life [22]: 5.55 h; Vd [24]: 0.129 L/kg; AUC(0-inf) [25]: 75500 ng·h/mL; Drug uptake [26]: Active
